From patent US9902728B2, “Pyrrolo and pyrazolopyrimidines as ubiquitin-specific protease 7 inhibitors” (Forma Therapeutics, Inc., priority 2014, dated 2018)

What follows are compounds tested against T1, USP7 (Homo sapiens, UniProt Q93009) (assay: USP7 Assay A (Ubitquin-Rhodamine 110 Assay)). Conditions: USP7_IC50, USP7 activity in USP7 assay A and B (table does not say which assay per compound).
T1 construct: USP7, construct USP7 (208-1102) 6*His, Viva Biotech; 6xHis (C); purchased Viva Biotech
T1 sequence (Q93009 208-1102): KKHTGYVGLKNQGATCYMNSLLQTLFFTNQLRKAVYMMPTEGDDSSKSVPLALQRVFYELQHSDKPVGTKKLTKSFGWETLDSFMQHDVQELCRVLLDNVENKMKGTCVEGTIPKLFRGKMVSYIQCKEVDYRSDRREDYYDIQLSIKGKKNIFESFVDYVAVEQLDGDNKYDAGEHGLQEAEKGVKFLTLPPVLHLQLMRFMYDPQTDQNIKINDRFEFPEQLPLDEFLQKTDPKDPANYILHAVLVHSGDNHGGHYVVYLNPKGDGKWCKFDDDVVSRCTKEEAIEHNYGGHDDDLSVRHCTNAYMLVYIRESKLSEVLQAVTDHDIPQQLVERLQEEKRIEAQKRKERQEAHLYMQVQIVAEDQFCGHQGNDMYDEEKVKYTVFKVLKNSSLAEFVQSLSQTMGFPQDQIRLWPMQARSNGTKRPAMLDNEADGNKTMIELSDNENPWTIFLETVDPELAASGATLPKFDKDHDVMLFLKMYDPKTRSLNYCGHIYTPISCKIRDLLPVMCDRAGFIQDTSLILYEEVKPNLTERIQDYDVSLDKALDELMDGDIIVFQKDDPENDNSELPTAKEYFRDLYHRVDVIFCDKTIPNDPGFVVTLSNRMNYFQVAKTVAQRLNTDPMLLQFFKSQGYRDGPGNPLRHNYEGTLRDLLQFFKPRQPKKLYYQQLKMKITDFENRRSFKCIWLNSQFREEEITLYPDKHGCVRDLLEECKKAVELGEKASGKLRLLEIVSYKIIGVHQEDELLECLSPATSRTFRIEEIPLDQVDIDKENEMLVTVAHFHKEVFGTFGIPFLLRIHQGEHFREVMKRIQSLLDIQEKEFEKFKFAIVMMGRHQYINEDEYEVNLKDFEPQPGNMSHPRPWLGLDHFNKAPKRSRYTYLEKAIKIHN
Type: biochemical
Outline: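 Ub-Rh110 cleavage in 20 mM Tris-HCl pH 8.0 with 1 mM GSH, 0.03% BGG, 0.01% Triton X-100; compound preincubated with enzyme 30 min before substrate.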
With `CC1(C(=O)N2CCC(O)(Cn3cnc4c(cnn4-c4cccc(N5CC6CC(C5)O6)c4)c3=O)CC2)CC1` [Compound I-1692] the IC50 was under 0.2 µM.

Same assay, conditions: USP7 activity in USP7 assay A and B (table does not say which assay per compound); read-out: USP7_IC50
Compound `O=C(c1cnc(Oc2ccccn2)o1)N1CCC(O)(Cn2cnc3c(cnn3-c3ccc(Cl)cc3)c2=O)CC1` [Compound I-1086] has an IC50 of 1 to 10 µM. With `O=C(N1CCC(Oc2ccccn2)CC1)N1CCC(O)(Cn2cnc3c(cnn3-c3ccc(F)cc3)c2=O)CC1` [Compound I-610] the IC50 was 1 to 10 µM. In the case of `CC1(C(=O)N2CCC(O)(Cn3cnc4c(cnn4-c4ccc(-n5cc(C(F)(F)F)cn5)cc4)c3=O)CC2)CCC1` [Compound I-1717], the IC50 is reported as under 0.2 µM. `Cn1cc(-c2ccc(-n3ncc4c(=O)n(CC5(O)CCN(C(=O)c6cnc(C7CC7)o6)CC5)cnc43)cc2)cn1` [Compound I-776] showed an IC50 of under 0.2 µM. Compound `Nc1cc(Cl)ccc1C(=O)N1CCC(O)(Cn2cnc3c(cnn3-c3ccc(F)cc3)c2=O)CC1` [Compound I-554] has an IC50 of 1 to 10 µM. Compound `O=C(C1CCC(NC2CC2)CC1)N1CCC(O)(Cn2cnc3c(cnn3-c3ccc(F)cc3)c2=O)CC1` (stereo not drawn) [Compound I-1072] has an IC50 of 1 to 10 µM. `C[C@H](CC(=O)N1CCC(O)(Cn2cnc3c(cnn3-c3ccc(N4CC[C@@](C)(O)C4)cc3)c2=O)CC1)n1cccn1` [Compound I-840] gave an IC50 of 1 to 10 µM. Work on `Cn1cc(C2CCC(C(=O)N3CCC(O)(Cn4cnc5c(cnn5-c5ccc(F)cc5)c4=O)CC3)CC2)cn1` (stereo not drawn) [Compound I-727] yielded an IC50 of 0.2 to 1 µM. Work on `O=C(C1CC(Nc2cccnc2)C1)N1CCC(O)(Cn2cnc3c(cnn3-c3ccc(F)cc3)c2=O)CC1` (stereo not drawn) [Compound I-1031] yielded an IC50 of 0.2 to 1 µM. Work on `O=C(c1ccc(F)cc1)N1CCC(O)(Cn2cnc3c(cnn3-c3ccc(-c4cnn(C5CCS(=O)(=O)CC5)c4)cc3)c2=O)CC1` [Compound I-1744] yielded an IC50 of 0.2 to 1 µM. For `O=C(C[C@H](C(F)F)n1ccc(F)n1)N1CCC(O)(Cn2cnc3c(cnn3-c3ccc(Cl)cc3)c2=O)CC1` [Compound I-1167], the IC50 was 1 to 10 µM. `O=C(c1ccc(-c2cnn(CCO)c2)cc1)N1CCC(O)(Cn2cnc3c(cnn3-c3ccc(F)cc3)c2=O)CC1` [Compound I-1006] was tested, and the IC50 was 1 to 10 µM. For `CC1(C(=O)N2CCC(O)(Cn3cnc4c(cnn4-c4cccc(N5CC(F)C5)c4)c3=O)CC2)CC1` [Compound I-1680], the IC50 was 0.2 to 1 µM. For `O=C(c1ccc(F)cc1)N1CCC(O)(Cn2cnc3c(cnn3-c3ccc(-n4cc5c(n4)CCOC5)cc3)c2=O)CC1` [Compound I-976], the IC50 was 1 to 10 µM. `O=C(c1ocnc1Cc1ccccc1)N1CCC(O)(Cn2cnc3c(cnn3-c3ccccc3)c2=O)CC1` [Compound I-1108] gave an IC50 of over 10 µM.

Same assay, conditions: USP7 assay A and B (table does not say which assay per compound); read-out: USP7_IC50
In the case of `O=C(CC(c1ccccc1)C(F)F)N1CCC(O)(Cn2cnc3c(cnn3-c3ccccc3)c2=O)CC1` (stereo not drawn) [Compound I-1102], the IC50 is reported as under 0.2 µM. Work on `O=C(C1CCC1)N1CCC(O)(Cn2cnc3c(cnn3-c3ccccc3)c2=O)CC1` [Compound I-194] yielded an IC50 of 1 to 10 µM. `C#CC(=O)N(C)C1CC(C(=O)N2CCC(O)(Cn3cnc4c(cnn4-c4ccc(F)cc4)c3=O)CC2)C1` (stereo not drawn) [Compound I-589] was tested, and the IC50 was 1 to 10 µM. In the case of `C[C@@]1(O)CCN(c2cc(-n3ncc4c(=O)n(CC5(O)CCN(C(=O)C6CC6)CC5)cnc43)ccc2F)C1` [Compound I-638], the IC50 is reported as 0.2 to 1 µM. Compound `O=C(c1ccc(Oc2ccccc2)cc1)N1CCC(O)(Cn2cnc3c(cnn3-c3ccccc3)c2=O)CC1` [Compound I-73] has an IC50 of 0.2 to 1 µM. For `COc1ccc(C(=O)N2CCC(O)(Cn3cnc4c(cnn4-c4ccccc4)c3=O)CC2)cc1Cl` [Compound I-214], the IC50 was 0.2 to 1 µM. With `C=CC(=O)NC1CCC(C(=O)N2CCC(O)(Cn3cnc4c(cnn4-c4ccc(F)cc4)c3=O)CC2)CC1` (stereo not drawn) [Compound I-576] the IC50 was 1 to 10 µM. In the case of `O=C(C1CC1)N1CCC(O)(Cn2cnc3c(cnn3-c3cccc(NCc4ccccc4)c3)c2=O)CC1` [Compound I-1155], the IC50 is reported as 0.2 to 1 µM. `O=C(C1CCCC1)N1CCC(O)(Cn2cnc3c(cnn3-c3ccccc3)c2=O)CC1` [Compound I-195] was tested, and the IC50 was 0.2 to 1 µM. In the case of `O=C(C1CC1)N1CCC(O)(Cn2cnc3c(cnn3-c3cccc(NCCN4CCOCC4)c3)c2=O)CC1` [Compound I-1194], the IC50 is reported as 1 to 10 µM. `NC1(c2cccc(-c3ccc(-n4ncc5c(=O)n(CC6(O)CCN(C(=O)C7CC7)CC6)cnc54)cc3)c2)COC1` [Compound I-691] gave an IC50 of 1 to 10 µM.
